Measured values taken from patent US8546579B2, “Bicycloheteroaryl compounds as P2X7 modulators and uses thereof” (Evotec (US) Inc., priority 2006, dated 2013).

Target: T1, P2X7 receptor (Homo sapiens, UniProt Q99572)
T1 construct: host or cells: THP-1 cells differentiated with LPS and IFN-γ
T1 sequence (Q99572 1-595): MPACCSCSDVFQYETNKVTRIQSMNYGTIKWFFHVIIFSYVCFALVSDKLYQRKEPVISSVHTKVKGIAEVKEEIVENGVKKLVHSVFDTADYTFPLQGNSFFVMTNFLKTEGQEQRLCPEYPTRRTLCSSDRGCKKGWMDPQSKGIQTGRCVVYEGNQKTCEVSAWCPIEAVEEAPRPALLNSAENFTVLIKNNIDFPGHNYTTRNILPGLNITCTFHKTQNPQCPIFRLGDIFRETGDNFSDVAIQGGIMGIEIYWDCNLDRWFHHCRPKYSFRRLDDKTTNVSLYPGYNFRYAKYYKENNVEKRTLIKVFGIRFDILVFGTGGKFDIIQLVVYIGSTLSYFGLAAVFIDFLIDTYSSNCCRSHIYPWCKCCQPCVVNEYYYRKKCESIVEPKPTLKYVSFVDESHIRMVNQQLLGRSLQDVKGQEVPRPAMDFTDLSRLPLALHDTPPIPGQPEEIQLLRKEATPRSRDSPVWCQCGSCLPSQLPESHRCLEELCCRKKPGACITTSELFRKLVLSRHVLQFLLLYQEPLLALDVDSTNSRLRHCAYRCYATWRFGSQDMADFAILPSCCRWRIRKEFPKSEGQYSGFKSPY
Experiment: IL-1β release assay in differentiated THP-1 cells stimulated with BzATP (Example 9)
Format: cell-based
Conditions: differentiated THP-1 cells, BzATP 250 uM; for inhibition at 0.3 µM: 0.3 μM compound, '+' class symbols, read-out: IL-1β % Inhib. @ 0.3 μM; for inhibition at 0.1 µM: 0.1 μM compound, '*' class symbols, read-out: IL-1β % Inhib. (asterisk classes, 0.1 μM)
Procedure: THP-1 cells (ATCC Cat # 285-IF-100) are plated in 96 well plates at a concentration of 200,000 cells per well and allowed to differentiate in RPMI-1640 media (ATCC Cat # 30-2001) containing 10% FBS, 100 IU/mL penicillin, 100 ug/mL streptomycin, 100 ng/mL LPS and 100 ng/mL IFN-γ for 16 hours. Following differentiation, the cells are treated for an additional 2 hours in RPMI-1640 media containing 100 IU/mL penicillin, 100 ug/mL streptomycin and fresh LPS at 100 ng/mL. The cells are then pretreated for 30 minutes with the compound of interest at the appropriate concentration in RPMI media containing 100 IU/mL penicillin, 100 ug/mL streptomycin. Following the pretreatment 2′,3′-O-(4-benzoylbenzoyl)-adenosine 5′-triphosphate (Sigma Aldrich Cat # B6396) is added to a final concentration of 250 uM and the cells are incubated for an additional 45 minutes. 30 uL of cell supernatant is then collected and IL-1β levels determined via ELISA (R&D systems Cat. # HSLB50) according to manufacturer's recommendations using the Tecan Safire plate reader. Background adjusted IL-1β levels of drug treated and non-treated cells are used to calculate the percent inhibition.
The compounds set forth in Table 1 were tested for activity in a cellular model as described herein. Specifically, cells were pretreated with differing amounts of the compound under test and released IL-1β determined as in Example 9, above. Measurements were made and IC50 values, presented in Table 2, below, were determined by fitting the data to a four parameter logistic equation using GraphPad Prism software (GraphPad Software, Inc). The equation may be expressed by the following formula: Y=Bottom+(Top−Bottom)/(1+10^((Log EC50−X)*HillSlope)) Where X is the logarithm of concentration, Y is the response and Y starts at Bottom and goes to Top with a sigmoid shape.

SMILES	inhibition at 0.3 µM [%]	inhibition at 0.1 µM [%]
CC(C)(C)Cn1ccc2c(NC(=O)CCc3ccc4c(c3)OCO4)cccc2c1=O [Compound 1055]	0 to 25	–
Cc1cc(C(=O)Nc2cccc3c(=O)n(CC(C)(C)C)ccc23)ccc1Cl [Compound 1056]	0 to 25	–
Cc1ccccc1CCC(=O)Nc1cccc2c(=O)n(C)ccc12 [Compound 1057]	–	0 to 25
COc1cccc(CCC(=O)Nc2cccc3c(=O)n(C)ccc23)c1 [Compound 1058]	0 to 25	–
CCOc1ccc(C(=O)Nc2cccc3c(=O)n(CCOC)ccc23)c(O)c1 [Compound 1059]	–	0 to 25
COCCn1ccc2c(NC(=O)c3ccc(OC)cc3C)cccc2c1=O [Compound 1060]	0 to 25	–
COCCn1ccc2c(NC(=O)C3CCC(C)CC3)cccc2c1=O (stereo not shown) [Compound 1061]	0 to 25	–
COCCn1ccc2c(NC(=O)CCc3ccccc3C)cccc2c1=O [Compound 1062]	–	26 to 50
COCCn1ccc2c(NC(=O)c3ccc(-c4ccccc4)o3)cccc2c1=O [Compound 1063]	–	0 to 25
COCCn1ccc2c(NC(=O)CCc3cccc(OC)c3)cccc2c1=O [Compound 1064]	–	0 to 25
COCCn1ccc2c(NC(=O)Cc3c(C)cc(C)cc3C)cccc2c1=O [Compound 1065]	0 to 25	–
COCCn1ccc2c(NC(=O)Cc3cc(C)ccc3C)cccc2c1=O [Compound 1066]	0 to 25	–
COCCn1ccc2c(NC(=O)c3ccc(OC)c(Cl)c3)cccc2c1=O [Compound 1067]	26 to 50	–
CCOc1cccc(C(=O)Nc2cccc3c(=O)n(CCOC)ccc23)c1 [Compound 1068]	0 to 25	–
COCCn1ccc2c(NC(=O)CCc3ccccc3Cl)cccc2c1=O [Compound 1069]	≥ 76	–
COCCn1ccc2c(NC(=O)CCc3ccc4c(c3)OCO4)cccc2c1=O [Compound 1070]	0 to 25	–
COCCn1ccc2c(NC(=O)c3ccc(Cl)c(C)c3)cccc2c1=O [Compound 1071]	0 to 25	–
CCOc1ccc(C(=O)Nc2cccc3c(=O)n(Cc4cccnc4)ccc23)c(O)c1 [Compound 1072]	0 to 25	–
COc1ccc(C(=O)Nc2cccc3c(=O)n(Cc4cccnc4)ccc23)c(C)c1 [Compound 1073]	0 to 25	–
O=C(Nc1cccc2c(=O)n(Cc3cccnc3)ccc12)c1ccc(-c2ccccc2)o1 [Compound 1074]	0 to 25	–
COc1cccc(CCC(=O)Nc2cccc3c(=O)n(Cc4cccnc4)ccc23)c1 [Compound 1075]	0 to 25	–

SMILES	inhibition at 0.3 µM [%]	inhibition at 0.1 µM [%]
Cc1cc(C)c(CC(=O)Nc2cccc3c(=O)n(Cc4cccnc4)ccc23)c(C)c1 [Compound 1076]	0 to 25	–
Cc1ccc(C)c(CC(=O)Nc2cccc3c(=O)n(Cc4cccnc4)ccc23)c1 [Compound 1077]	0 to 25	–
COc1ccc(C(=O)Nc2cccc3c(=O)n(Cc4cccnc4)ccc23)cc1Cl [Compound 1078]	0 to 25	–
O=C(CCc1ccccc1Cl)Nc1cccc2c(=O)n(Cc3cccnc3)ccc12 [Compound 1079]	0 to 25	–
O=C(CCc1ccc2c(c1)OCO2)Nc1cccc2c(=O)n(Cc3cccnc3)ccc12 [Compound 1080]	0 to 25	–
Cc1cc(C(=O)Nc2cccc3c(=O)n(Cc4cccnc4)ccc23)ccc1Cl [Compound 1081]	0 to 25	–
O=C(Nc1cccc2c(=O)n(CC3CCOCC3)ccc12)c1ccccc1Cl [Compound 1082]	26 to 50	–
O=C(Nc1cccc2c(=O)n(CC3CCOCC3)ccc12)c1ccc(Cl)cc1Cl [Compound 1083]	0 to 25	–
O=C(Nc1cccc2c(=O)n(CC3CCOCC3)ccc12)c1cc(Cl)ccc1Cl [Compound 1084]	0 to 25	–
Cc1ccccc1C(=O)Nc1cccc2c(=O)n(CC3CCOCC3)ccc12 [Compound 1085]	0 to 25	–
Cc1cccc(C(=O)Nc2cccc3c(=O)n(CC4CCOCC4)ccc23)c1C [Compound 1086]	0 to 25	–
Cc1ccc(C(=O)Nc2cccc3c(=O)n(CC4CCOCC4)ccc23)c(C)c1 [Compound 1087]	0 to 25	–
Cc1ccc(C)c(C(=O)Nc2cccc3c(=O)n(CC4CCOCC4)ccc23)c1 [Compound 1088]	0 to 25	–
COc1cc(OC)cc(C(=O)Nc2cccc3c(=O)n(CC4CCOCC4)ccc23)c1 [Compound 1089]	0 to 25	–
Cc1cccc(C(=O)Nc2cccc3c(=O)n(CC4CCOCC4)ccc23)c1 [Compound 1090]	0 to 25	–
CCOc1ccc(C(=O)Nc2cccc3c(=O)n(CC4CCOCC4)ccc23)cc1 [Compound 1091]	0 to 25	–
CC(C)(C)c1ccc(C(=O)Nc2cccc3c(=O)n(CC4CCOCC4)ccc23)cc1 [Compound 1092]	0 to 25	–
CC(C(=O)Nc1cccc2c(=O)n(CC3CCOCC3)ccc12)c1ccccc1 (stereo not shown) [Compound 1093]	0 to 25	–
COc1ccccc1CCC(=O)Nc1cccc2c(=O)n(CC3CCOCC3)ccc12 [Compound 1094]	0 to 25	–
COc1ccc(CCC(=O)Nc2cccc3c(=O)n(CC4CCOCC4)ccc23)cc1 [Compound 1095]	0 to 25	–
O=C(Nc1cccc2c(=O)n(CC3CCOCC3)ccc12)c1cccc2ccccc12 [Compound 1096]	0 to 25	–

SMILES	inhibition at 0.3 µM [%]	inhibition at 0.1 µM [%]
O=C(Nc1cccc2c(=O)n(CC3CCOCC3)ccc12)c1ccc2ccccc2c1 [Compound 1098]	0 to 25	–
COc1ccccc1CC(=O)Nc1cccc2c(=O)n(CC3CCOCC3)ccc12 [Compound 1099]	0 to 25	–
COc1ccc(OC)c(CC(=O)Nc2cccc3c(=O)n(CC4CCOCC4)ccc23)c1 [Compound 1100]	0 to 25	–
Cc1ccccc1CC(=O)Nc1cccc2c(=O)n(CC3CCOCC3)ccc12 [Compound 1101]	0 to 25	–
COc1cccc(CC(=O)Nc2cccc3c(=O)n(CC4CCOCC4)ccc23)c1 [Compound 1102]	0 to 25	–
COc1ccc(CC(=O)Nc2cccc3c(=O)n(CC4CCOCC4)ccc23)cc1OC [Compound 1103]	0 to 25	–
Cc1cccc(CC(=O)Nc2cccc3c(=O)n(CC4CCOCC4)ccc23)c1 [Compound 1104]	0 to 25	–
COc1ccc(CC(=O)Nc2cccc3c(=O)n(CC4CCOCC4)ccc23)cc1 [Compound 1105]	0 to 25	–
CCOc1ccc(CC(=O)Nc2cccc3c(=O)n(CC4CCOCC4)ccc23)cc1 [Compound 1106]	0 to 25	–
Cc1ccc(CC(=O)Nc2cccc3c(=O)n(CC4CCOCC4)ccc23)cc1 [Compound 1107]	0 to 25	–
O=C(CCCc1ccccc1)Nc1cccc2c(=O)n(CC3CCOCC3)ccc12 [Compound 1108]	0 to 25	–
O=C(Nc1cccc2c(=O)n(CC3CCOCC3)ccc12)c1cc2ccccc2o1 [Compound 1109]	0 to 25	–
O=C(Cc1ccc2c(c1)OCO2)Nc1cccc2c(=O)n(CC3CCOCC3)ccc12 [Compound 1110]	0 to 25	–
COc1cc(CC(=O)Nc2cccc3c(=O)n(CC4CCOCC4)ccc23)cc(OC)c1 [Compound 1111]	0 to 25	–
COc1c(C)cc(C(=O)Nc2cccc3c(=O)n(CC4CCOCC4)ccc23)cc1C [Compound 1112]	0 to 25	–
Cc1ccc(C(=O)Nc2cccc3c(=O)n(CC4CCOCC4)ccc23)cc1Cl [Compound 1113]	0 to 25	–
Cc1cc(Cl)ccc1C(=O)Nc1cccc2c(=O)n(CC3CCOCC3)ccc12 [Compound 1114]	0 to 25	–
O=C(CC1C[C@@H]2CC[C@H]1C2)Nc1cccc2c(=O)n(CC3CCOCC3)ccc12 (stereo partly shown) [Compound 1115]	26 to 50	–
O=C(Nc1cccc2c(=O)n(CC3CCOCC3)ccc12)[C@]12C[C@@H]3CC1C[C@@H](C3)C2 [Compound 1116]	0 to 25	–
